Source: PubChem BioAssay (NCI)
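Compound exposure: 48 hours, 5 concentrations, 96-well plates. The concentration for full growth arrest is given as TGI.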

Key:
Test in all cases: NCI anticancer screen, dose series, 48 h
786-0 renal = test system: 786-0 renal
A498 renal = test system: A498 renal
A549 NSCLC = test system: A549 NSCLC
ACHN renal = test system: ACHN renal
BT-549 breast = test system: BT-549 breast
CAKI-1 renal = test system: CAKI-1 renal
CCRF-CEM leukemia = test system: CCRF-CEM leukemia
COLO 205 colon = test system: COLO 205 colon
DU-145 prostate = test system: DU-145 prostate
EKVX NSCLC = test system: EKVX NSCLC
HCC-2998 colon = test system: HCC-2998 colon
HCT-116 colon = test system: HCT-116 colon
HCT-15 colon = test system: HCT-15 colon
HL-60(TB) leukemia = test system: HL-60(TB) leukemia
HOP-62 NSCLC = test system: HOP-62 NSCLC
HOP-92 NSCLC = test system: HOP-92 NSCLC
HS 578T breast = test system: HS 578T breast
HT29 colon = test system: HT29 colon
IGROV1 ovarian = test system: IGROV1 ovarian
K-562 leukemia = test system: K-562 leukemia
KM12 colon = test system: KM12 colon
LOX IMVI melanoma = test system: LOX IMVI melanoma
M14 melanoma = test system: M14 melanoma
MALME-3M melanoma = test system: MALME-3M melanoma
MCF7 breast = test system: MCF7 breast
MDA-MB-231 breast = test system: MDA-MB-231 breast
MDA-MB-435 = test system: MDA-MB-435
MDA-N = test system: MDA-N
MOLT-4 leukemia = test system: MOLT-4 leukemia
NCI-H226 lung = test system: NCI-H226 lung
NCI-H23 lung = test system: NCI-H23 lung
NCI-H460 lung = test system: NCI-H460 lung
NCI-H522 lung = test system: NCI-H522 lung
NCI/ADR-RES ovarian = test system: NCI/ADR-RES ovarian
OVCAR-3 ovarian = test system: OVCAR-3 ovarian
OVCAR-4 ovarian = test system: OVCAR-4 ovarian
OVCAR-5 ovarian = test system: OVCAR-5 ovarian
OVCAR-8 ovarian = test system: OVCAR-8 ovarian
PC-3 prostate = test system: PC-3 prostate
RPMI-8226 leukemia = test system: RPMI-8226 leukemia
RXF 393 renal = test system: RXF 393 renal
SF-268 CNS = test system: SF-268 CNS
SF-295 CNS = test system: SF-295 CNS
SF-539 CNS = test system: SF-539 CNS
SK-MEL-2 melanoma = test system: SK-MEL-2 melanoma
SK-MEL-28 melanoma = test system: SK-MEL-28 melanoma
SK-MEL-5 melanoma = test system: SK-MEL-5 melanoma
SK-OV-3 ovarian = test system: SK-OV-3 ovarian
SN12C renal = test system: SN12C renal
SNB-19 CNS = test system: SNB-19 CNS
SNB-75 CNS = test system: SNB-75 CNS
SR leukemia = test system: SR leukemia
SW-620 colon = test system: SW-620 colon
T-47D breast = test system: T-47D breast
TK-10 renal = test system: TK-10 renal
U251 CNS = test system: U251 CNS
UACC-257 melanoma = test system: UACC-257 melanoma
UACC-62 melanoma = test system: UACC-62 melanoma
UO-31 renal = test system: UO-31 renal
DLD-1 colon = test system: DLD-1 colon
DMS 114 small cell lung = test system: DMS 114 small cell lung
DMS 273 small cell lung = test system: DMS 273 small cell lung
KM20L2 colon = test system: KM20L2 colon
LXFL 529 NSCLC = test system: LXFL 529 NSCLC

CC(C)=CC(=O)c1[nH]c2ccccc2c1CC(=O)NCCc1cn(C(c2ccccc2)(c2ccccc2)c2ccccc2)cn1
TGI (786-0 renal): > 100 µM
TGI (A498 renal): > 50.5 µM
TGI (A549 NSCLC): > 27.4 µM
TGI (ACHN renal): > 100 µM
TGI (BT-549 breast): 11 µM
TGI (CAKI-1 renal): > 100 µM
TGI (CCRF-CEM leukemia): > 24.3 µM
TGI (COLO 205 colon): 3.4 µM
TGI (DU-145 prostate): > 100 µM
TGI (EKVX NSCLC): > 100 µM
TGI (HCC-2998 colon): 3.78 µM
TGI (HCT-116 colon): 10.6 µM
TGI (HCT-15 colon): > 40.4 µM
TGI (HL-60(TB) leukemia): 3.44 µM
TGI (HOP-62 NSCLC): > 100 µM
TGI (HOP-92 NSCLC): > 26.1 µM
TGI (HS 578T breast): > 56.5 µM
TGI (HT29 colon): > 42.7 µM
TGI (IGROV1 ovarian): > 45 µM
TGI (K-562 leukemia): > 59.6 µM
TGI (KM12 colon): 14.2 µM
TGI (LOX IMVI melanoma): 4.46 µM
TGI (M14 melanoma): 4.8 µM
TGI (MALME-3M melanoma): 12.5 µM
TGI (MCF7 breast): > 100 µM
TGI (MDA-MB-231 breast): 6.36 µM
TGI (MDA-MB-435): 4.42 µM
TGI (MDA-N): 9.75 µM
TGI (MOLT-4 leukemia): 5.49 µM
TGI (NCI-H226 lung): 6.28 µM
TGI (NCI-H23 lung): > 36.2 µM
TGI (NCI-H460 lung): 10.6 µM
TGI (NCI-H522 lung): 19.8 µM
TGI (NCI/ADR-RES ovarian): 10.8 µM
TGI (OVCAR-3 ovarian): > 100 µM
TGI (OVCAR-4 ovarian): > 58.7 µM
TGI (OVCAR-5 ovarian): 87.7 µM
TGI (OVCAR-8 ovarian): > 100 µM
TGI (PC-3 prostate): 6.75 µM
TGI (RPMI-8226 leukemia): 5.23 µM
TGI (RXF 393 renal): 13.5 µM
TGI (SF-268 CNS): > 53.3 µM
TGI (SF-295 CNS): > 100 µM
TGI (SF-539 CNS): 5.21 µM
TGI (SK-MEL-2 melanoma): 3.54 µM
TGI (SK-MEL-28 melanoma): 12.4 µM
TGI (SK-MEL-5 melanoma): 3.84 µM
TGI (SK-OV-3 ovarian): > 100 µM
TGI (SN12C renal): > 23.9 µM
TGI (SNB-19 CNS): > 30.4 µM
TGI (SNB-75 CNS): > 100 µM
TGI (SR leukemia): 4.88 µM
TGI (SW-620 colon): > 100 µM
TGI (T-47D breast): > 100 µM
TGI (TK-10 renal): > 100 µM
TGI (U251 CNS): 9.17 µM
TGI (UACC-257 melanoma): > 67.4 µM
TGI (UACC-62 melanoma): 4.72 µM
TGI (UO-31 renal): > 29.4 µM

CCCCC(=O)OC[n+]1cccc(-c2c(COC(=O)NC(C)C)c(COC(=O)NC(C)C)c3n2CCC3)c1
TGI (786-0 renal): > 85 µM
TGI (A498 renal): 49.2 µM
TGI (A549 NSCLC): > 100 µM
TGI (ACHN renal): 82.8 µM
TGI (BT-549 breast): > 100 µM
TGI (CAKI-1 renal): 56 µM
TGI (CCRF-CEM leukemia): > 77.4 µM
TGI (COLO 205 colon): > 100 µM
TGI (DU-145 prostate): 71.6 µM
TGI (EKVX NSCLC): > 100 µM
TGI (HCC-2998 colon): > 100 µM
TGI (HCT-116 colon): > 100 µM
TGI (HCT-15 colon): > 100 µM
TGI (HL-60(TB) leukemia): > 81.9 µM
TGI (HOP-62 NSCLC): > 100 µM
TGI (HOP-92 NSCLC): 77.2 µM
TGI (HS 578T breast): > 100 µM
TGI (HT29 colon): > 100 µM
TGI (IGROV1 ovarian): > 100 µM
TGI (K-562 leukemia): > 100 µM
TGI (KM12 colon): > 100 µM
TGI (LOX IMVI melanoma): > 65.9 µM
TGI (M14 melanoma): > 100 µM
TGI (MALME-3M melanoma): > 100 µM
TGI (MCF7 breast): > 100 µM
TGI (MDA-MB-231 breast): > 100 µM
TGI (MDA-MB-435): > 100 µM
TGI (MDA-N): > 100 µM
TGI (MOLT-4 leukemia): > 100 µM
TGI (NCI-H226 lung): > 100 µM
TGI (NCI-H23 lung): 98.7 µM
TGI (NCI-H460 lung): > 100 µM
TGI (NCI-H522 lung): 49.4 µM
TGI (NCI/ADR-RES ovarian): > 100 µM
TGI (OVCAR-3 ovarian): > 100 µM
TGI (OVCAR-4 ovarian): > 92.6 µM
TGI (OVCAR-5 ovarian): > 100 µM
TGI (OVCAR-8 ovarian): > 100 µM
TGI (PC-3 prostate): > 100 µM
TGI (RPMI-8226 leukemia): > 100 µM
TGI (RXF 393 renal): 55.2 µM
TGI (SF-268 CNS): > 81.5 µM
TGI (SF-295 CNS): > 100 µM
TGI (SF-539 CNS): > 76 µM
TGI (SK-MEL-2 melanoma): 70.6 µM
TGI (SK-MEL-28 melanoma): > 100 µM
TGI (SK-MEL-5 melanoma): > 100 µM
TGI (SK-OV-3 ovarian): > 100 µM
TGI (SN12C renal): > 100 µM
TGI (SNB-19 CNS): > 100 µM
TGI (SNB-75 CNS): > 100 µM
TGI (SR leukemia): 52.3 µM
TGI (SW-620 colon): > 100 µM
TGI (T-47D breast): > 100 µM
TGI (TK-10 renal): > 100 µM
TGI (U251 CNS): > 100 µM
TGI (UACC-257 melanoma): > 100 µM
TGI (UACC-62 melanoma): 60.7 µM
TGI (UO-31 renal): 71.7 µM

CC(C)N(C(=O)C12C3C4C1C1C2C3C41C(=O)O)C(C)C (stereo not drawn)
TGI (786-0 renal): > 100 µM
TGI (A498 renal): > 100 µM
TGI (A549 NSCLC): > 100 µM
TGI (ACHN renal): > 100 µM
TGI (CAKI-1 renal): > 100 µM
TGI (CCRF-CEM leukemia): > 100 µM
TGI (COLO 205 colon): > 100 µM
TGI (DLD-1 colon): > 100 µM
TGI (DMS 114 small cell lung): > 100 µM
TGI (DMS 273 small cell lung): > 100 µM
TGI (EKVX NSCLC): > 100 µM
TGI (HCC-2998 colon): > 100 µM
TGI (HCT-116 colon): > 100 µM
TGI (HCT-15 colon): > 100 µM
TGI (HL-60(TB) leukemia): > 100 µM
TGI (HOP-62 NSCLC): > 100 µM
TGI (HT29 colon): > 100 µM
TGI (IGROV1 ovarian): > 100 µM
TGI (K-562 leukemia): > 100 µM
TGI (KM12 colon): > 100 µM
TGI (KM20L2 colon): > 100 µM
TGI (LOX IMVI melanoma): > 100 µM
TGI (LXFL 529 NSCLC): > 100 µM
TGI (M14 melanoma): > 100 µM
TGI (MALME-3M melanoma): > 100 µM
TGI (MOLT-4 leukemia): > 100 µM
TGI (NCI-H226 lung): > 100 µM
TGI (NCI-H23 lung): > 100 µM
TGI (NCI-H460 lung): > 100 µM
TGI (NCI-H522 lung): > 100 µM
TGI (OVCAR-3 ovarian): > 100 µM
TGI (OVCAR-4 ovarian): > 100 µM
TGI (OVCAR-5 ovarian): > 100 µM
TGI (OVCAR-8 ovarian): > 100 µM
TGI (RPMI-8226 leukemia): > 100 µM
TGI (SF-268 CNS): > 100 µM
TGI (SF-295 CNS): > 100 µM
TGI (SF-539 CNS): > 100 µM
TGI (SK-MEL-2 melanoma): > 100 µM
TGI (SK-MEL-28 melanoma): > 100 µM
TGI (SK-MEL-5 melanoma): > 100 µM
TGI (SK-OV-3 ovarian): > 100 µM
TGI (SN12C renal): > 100 µM
TGI (SNB-19 CNS): > 100 µM
TGI (SNB-75 CNS): > 100 µM
TGI (SW-620 colon): > 100 µM
TGI (TK-10 renal): > 100 µM
TGI (UACC-257 melanoma): > 100 µM
TGI (UACC-62 melanoma): > 100 µM
TGI (UO-31 renal): > 100 µM
